Square brackets hold non-standard residues; d marks the D form. Peptide text beside a SMILES is read from it. * marks the point of attachment. NMeV = CN[C@H](C(=O)O)C(C)C; X1 = C#CCCC/C(=C\C(=O)*)OC; X2 = C#CCCCC(=O)CC(=O)*

Holding throughout (type): functional
In assay [1] the test system is U2OS. The assay is described as follows: Cytotoxicity against human U2OS cells after 48 hrs by MTT assay.
Assay [2] has as its system HT-29. The assay is described as follows: Cytotoxicity against human HT29 cells after 48 hrs by MTT assay. To be noted: HT-29, 48 h.
Assay [3] concerns IMR-32. Nature of the assay: Cytotoxicity against human IMR32 cells after 48 hrs by MTT assay. To be noted: IMR-32, 48 h.

With `C#CCCC/C(=C\C(=O)N(C)[C@H](C(=O)N(C)[C@H](C(=O)N(C)[C@H](C(=O)N(C)[C@H](C(N)=O)C(C)C)C(C)C)C(C)C)C(C)C)OC` [DRAGONAMIDE C] (X1-[NMeV][NMeV][NMeV][NMeV]-NH2), the GI50 in assay [1] was 56 µM; in assay [2], 22 µM; in assay [3], 49 µM.

Turning to `C#CCCCC(=O)CC(=O)N(C)[C@H](C(=O)N(C)[C@H](C(=O)N(C)[C@H](C(=O)N(C)[C@H](C(N)=O)C(C)C)C(C)C)C(C)C)C(C)C` [DRAGONAMIDE D] (X2-[NMeV][NMeV][NMeV][NMeV]-NH2), the GI50 in assay [1] came out at 59 µM; in assay [2], 32 µM; in assay [3] it was 51 µM.

These data come from ChEMBL document CHEMBL1150236, “Dragonamides C and D, linear lipopeptides from the marine cyanobacterium brown Lyngbya polychroa” (2008).
